Experimental data as given in ChEMBL document CHEMBL3217456 (Medchemcomm, 2014).
Calls of active or inactive are those of the source. The calls are words filed in the database; no cut-off is given here.

What was measured:
[1] = biological target: T1, Histamine H4 receptor (Homo sapiens, UniProt Q9H3N8); assay: (§1) Antagonist activity at human recombinant histamine H4 receptor-RGS19 fusion protein expressed in Sf9 cells coexpressing Galphai2,Gbeta1gamma2 assessed as inhibition of histamine-induced […] hydrolysis preincubated for 2 mins before [gamma32P]GTP addition measured after 20 mins by steady-state GTPase activity assay; format: functional
[2] = biological target: Histamine H2 receptor (Cavia porcellus) (UniProt P47747); assay: Antagonist activity at guinea pig histamine H2 receptor assessed as reduction of histamine-induced maximal response after 30 mins
[3] = biological target: T2, Histamine H2 receptor (Cavia porcellus, UniProt P47747); assay: Antagonist activity at guinea pig histamine H2 receptor assessed as inhibition of histamine-induced response after 30 mins; settings: read-out: pA2 (converted)
[4] = biological target: T3, Histamine H3 receptor (Homo sapiens, UniProt Q9Y5N1); assay: as §1, with “H3 receptor” for “H4 receptor-RGS19 fusion protein”, “Galphai2,Gbeta1gamma2 and RGS4” for “Galphai2,Gbeta1gamma2”; format: functional
[5] = biological target: Histamine H1 receptor (Homo sapiens) (UniProt P35367); assay: Antagonist activity at human recombinant histamine H1 receptor expressed in Sf9 cells coexpressing RGS4 assessed as inhibition of histamine-induced […] hydrolysis preincubated for 2 mins before [gamma32P]GTP addition measured after 20 mins by steady-state GTPase activity assay; format: functional
[6] = biological target: T4, Histamine H2 receptor (Homo sapiens, UniProt P25021); assay: Intrinsic activity at human recombinant histamine H2 receptor-Gsalphas fusion protein expressed in Sf9 cells preincubated for 2 mins before [gamma32P]GTP addition measured after 20 mins by steady-state GTPase activity assay relative to histamine
[7] = biological target: T3, Histamine H3 receptor; assay: Intrinsic activity at human recombinant histamine H3 receptor expressed in Sf9 cells coexpressing Galphai2,Gbeta1gamma2 and RGS4 preincubated for 2 mins before [gamma32P]GTP addition measured after 20 mins by steady-state GTPase activity assay relative to histamine
[8] = biological target: T4, Histamine H2 receptor; assay: Antagonist activity at human recombinant histamine H2 receptor-Gsalphas fusion protein expressed in Sf9 cells assessed as inhibition of histamine-induced […] hydrolysis preincubated for 2 mins before [gamma32P]GTP addition measured after 20 mins by steady-state GTPase activity assay; format: functional
[9] = biological target: T4, Histamine H2 receptor; assay: Agonist activity at human recombinant histamine H2 receptor-Gsalphas fusion protein expressed in Sf9 cells assessed as [35S]GTPgammaS binding after 90 mins by liquid scintillation counting; format: functional
[10] = biological target: T1, Histamine H4 receptor; assay: Intrinsic activity at human recombinant histamine H4 receptor-RGS19 fusion protein expressed in Sf9 cells coexpressing Galphai2,Gbeta1gamma2 assessed as [35S]GTPgammaS binding at 10 uM after 90 mins by liquid scintillation counting relative to histamine; format: functional
[11] = biological target: T1, Histamine H4 receptor; assay: Antagonist activity at human recombinant histamine H4 receptor-RGS19 fusion protein expressed in Sf9 cells coexpressing Galphai2,Gbeta1gamma2 assessed as inhibition of histamine-induced [35S]GTPgammaS binding after 90 mins by liquid scintillation counting; format: functional
[12] = biological target: Histamine H1 receptor (Homo sapiens) (UniProt P35367); settings: Sf9
[13] = biological target: T3, Histamine H3 receptor; assay: Intrinsic activity at human recombinant histamine H3 receptor expressed in Sf9 cells coexpressing Galphai2,Gbeta1gamma2 and RGS4 assessed as [35S]GTPgammaS binding at 10 uM after 90 mins by liquid scintillation counting relative to histamine; format: functional
[14] = biological target: T3, Histamine H3 receptor; assay: Antagonist activity at human recombinant histamine H3 receptor expressed in Sf9 cells coexpressing Galphai2,Gbeta1gamma2 and RGS4 assessed as inhibition of histamine-induced [35S]GTPgammaS binding after 90 mins by liquid scintillation counting; format: functional
[15] = biological target: Histamine H1 receptor (Homo sapiens) (UniProt P35367); assay: Intrinsic activity at human recombinant histamine H1 receptor expressed in Sf9 cells coexpressing RGS4 preincubated for 2 mins before [gamma32P]GTP addition measured after 20 mins by steady-state GTPase activity assay relative to histamine
[16] = biological target: T1, Histamine H4 receptor; assay: Intrinsic activity at human recombinant histamine H4 receptor-RGS19 fusion protein expressed in Sf9 cells coexpressing Galphai2,Gbeta1gamma2 preincubated for 2 mins before [gamma32P]GTP addition measured after 20 mins by steady-state GTPase activity assay relative to histamine
[17] = biological target: Histamine H2 receptor (Cavia porcellus) (UniProt P47747); assay: Agonist activity at guinea pig histamine H2 receptor assessed as potentiation of histamine-induced response after 30 mins relative to histamine
[18] = biological target: T4, Histamine H2 receptor; assay: Agonist activity at human recombinant histamine H2 receptor-Gsalphas fusion protein expressed in Sf9 cells preincubated for 2 mins before [gamma32P]GTP addition measured after 20 mins by steady-state GTPase activity assay
[19] = biological target: T2, Histamine H2 receptor; assay: Agonist activity at guinea pig atrium histamine H2 receptor assessed as potentiation of histamine-induced response after 30 mins; set-up: species or system Cardiac atrium
[20] = biological target: Histamine H1 receptor (Cavia porcellus, UniProt P31389); assay: Antagonist activity at guinea pig ileum histamine H1 receptor assessed as inhibition of histamine-induced response after 10 to 15 mins; format: tissue-based; settings: read-out: pA2 (converted)
[21] = biological target: T1, Histamine H4 receptor; assay: Agonist activity at human recombinant histamine H4 receptor-RGS19 fusion protein expressed in Sf9 cells coexpressing Galphai2,Gbeta1gamma2 preincubated for 2 mins before [gamma32P]GTP addition measured after 20 mins by steady-state GTPase activity assay
[22] = biological target: T2, Histamine H2 receptor; assay: Agonist activity at guinea pig histamine H2 receptor assessed as potentiation of histamine-induced response at after 30 mins
[23] = biological target: T1, Histamine H4 receptor; assay: Agonist activity at human recombinant histamine H4 receptor-RGS19 fusion protein expressed in Sf9 cells coexpressing Galphai2,Gbeta1gamma2 assessed as [35S]GTPgammaS binding after 90 mins by liquid scintillation counting; format: functional
[24] = Selectivity ratio of EC50 for human recombinant histamine H2 receptor-Gsalphas fusion protein expressed in Sf9 cells to EC50 for human recombinant histamine H4 receptor-RGS19 fusion protein expressed in Sf9 cells coexpressing Galphai2,Gbeta1gamma2
[25] = biological target: T4, Histamine H2 receptor; assay: Intrinsic activity at human recombinant histamine H2 receptor-Gsalphas fusion protein expressed in Sf9 cells assessed as [35S]GTPgammaS binding at 10 uM after 90 mins by liquid scintillation counting relative to histamine; format: functional
[26] = Selectivity ratio of EC50 for human recombinant histamine H1 receptor expressed in Sf9 cells coexpressing RGS4 to EC50 for human recombinant histamine H4 receptor-RGS19 fusion protein expressed in Sf9 cells coexpressing Galphai2,Gbeta1gamma2
[27] = biological target: T4, Histamine H2 receptor; assay: Antagonist activity at human recombinant histamine H2 receptor-Gsalphas fusion protein expressed in Sf9 cells assessed as inhibition of histamine-induced [35S]GTPgammaS binding after 90 mins by liquid scintillation counting; format: functional
[28] = Selectivity ratio of EC50 for human recombinant histamine H3 receptor expressed in Sf9 cells coexpressing Galphai2,Gbeta1gamma2 and RGS4 to EC50 for human recombinant histamine H4 receptor-RGS19 fusion protein expressed in Sf9 cells coexpressing Galphai2,Gbeta1gamma2

Sequence of Histamine H1 receptor (P31389 whole entry, the tested form may be a part): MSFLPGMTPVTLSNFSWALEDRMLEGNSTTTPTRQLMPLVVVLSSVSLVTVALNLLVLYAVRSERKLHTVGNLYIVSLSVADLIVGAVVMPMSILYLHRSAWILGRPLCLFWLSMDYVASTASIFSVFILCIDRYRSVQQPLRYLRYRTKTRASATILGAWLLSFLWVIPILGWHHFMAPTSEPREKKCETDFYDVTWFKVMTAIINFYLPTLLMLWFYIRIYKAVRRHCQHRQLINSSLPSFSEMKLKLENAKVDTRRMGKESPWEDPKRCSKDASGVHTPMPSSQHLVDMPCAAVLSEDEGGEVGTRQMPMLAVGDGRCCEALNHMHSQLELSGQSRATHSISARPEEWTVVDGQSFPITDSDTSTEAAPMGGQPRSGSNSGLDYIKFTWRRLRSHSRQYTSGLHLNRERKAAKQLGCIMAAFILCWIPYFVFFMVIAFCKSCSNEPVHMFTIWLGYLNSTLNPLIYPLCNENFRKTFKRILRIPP
T4 sequence (P25021 whole entry, the tested form may be a part): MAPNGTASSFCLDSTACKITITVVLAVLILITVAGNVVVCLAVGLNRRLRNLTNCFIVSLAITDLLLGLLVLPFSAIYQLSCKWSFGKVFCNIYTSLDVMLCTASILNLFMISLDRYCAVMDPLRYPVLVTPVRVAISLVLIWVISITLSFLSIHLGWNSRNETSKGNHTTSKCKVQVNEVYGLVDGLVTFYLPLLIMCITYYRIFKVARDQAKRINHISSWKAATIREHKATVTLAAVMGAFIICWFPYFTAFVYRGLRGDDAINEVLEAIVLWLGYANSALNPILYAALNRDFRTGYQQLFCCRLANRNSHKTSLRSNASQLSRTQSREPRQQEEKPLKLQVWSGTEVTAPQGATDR
T3 sequence (Q9Y5N1 whole entry, the tested form may be a part): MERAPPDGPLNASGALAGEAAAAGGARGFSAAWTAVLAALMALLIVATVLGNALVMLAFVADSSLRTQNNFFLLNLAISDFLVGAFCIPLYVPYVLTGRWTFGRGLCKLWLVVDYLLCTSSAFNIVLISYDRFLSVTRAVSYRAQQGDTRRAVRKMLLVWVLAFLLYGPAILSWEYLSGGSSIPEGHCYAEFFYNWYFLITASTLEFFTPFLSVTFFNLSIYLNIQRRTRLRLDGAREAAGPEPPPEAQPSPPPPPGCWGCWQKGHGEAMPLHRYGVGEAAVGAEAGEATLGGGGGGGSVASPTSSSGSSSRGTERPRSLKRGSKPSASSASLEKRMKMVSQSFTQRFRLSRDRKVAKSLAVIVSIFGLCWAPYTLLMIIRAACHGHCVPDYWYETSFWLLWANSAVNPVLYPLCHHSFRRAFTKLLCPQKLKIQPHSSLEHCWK
Sequence of Histamine H2 receptor (Cavia porcellus) (P47747 whole entry, the tested form may be a part): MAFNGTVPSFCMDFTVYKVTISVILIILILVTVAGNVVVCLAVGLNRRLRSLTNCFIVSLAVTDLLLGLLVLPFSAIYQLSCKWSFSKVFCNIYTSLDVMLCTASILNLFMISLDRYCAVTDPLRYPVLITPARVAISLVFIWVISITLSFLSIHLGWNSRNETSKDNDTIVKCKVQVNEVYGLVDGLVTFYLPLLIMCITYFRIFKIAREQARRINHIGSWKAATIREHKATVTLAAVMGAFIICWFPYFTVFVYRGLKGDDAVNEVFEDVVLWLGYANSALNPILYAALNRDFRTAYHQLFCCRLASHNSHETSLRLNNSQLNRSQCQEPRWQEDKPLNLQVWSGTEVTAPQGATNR
T2 sequence (P47747 whole entry, the tested form may be a part): as above
T1 sequence (Q9H3N8 whole entry, the tested form may be a part): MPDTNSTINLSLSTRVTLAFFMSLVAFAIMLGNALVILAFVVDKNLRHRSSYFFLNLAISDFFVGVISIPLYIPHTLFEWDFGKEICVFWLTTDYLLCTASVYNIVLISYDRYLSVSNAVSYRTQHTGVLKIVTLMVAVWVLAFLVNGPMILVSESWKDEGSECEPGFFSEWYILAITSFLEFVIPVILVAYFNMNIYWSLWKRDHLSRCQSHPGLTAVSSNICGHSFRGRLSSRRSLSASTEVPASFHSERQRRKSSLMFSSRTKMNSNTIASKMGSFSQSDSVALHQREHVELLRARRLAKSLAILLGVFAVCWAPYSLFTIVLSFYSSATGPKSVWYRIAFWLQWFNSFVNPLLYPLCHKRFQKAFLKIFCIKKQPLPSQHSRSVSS
Sequence of Histamine H1 receptor (Homo sapiens) (P35367 whole entry, the tested form may be a part): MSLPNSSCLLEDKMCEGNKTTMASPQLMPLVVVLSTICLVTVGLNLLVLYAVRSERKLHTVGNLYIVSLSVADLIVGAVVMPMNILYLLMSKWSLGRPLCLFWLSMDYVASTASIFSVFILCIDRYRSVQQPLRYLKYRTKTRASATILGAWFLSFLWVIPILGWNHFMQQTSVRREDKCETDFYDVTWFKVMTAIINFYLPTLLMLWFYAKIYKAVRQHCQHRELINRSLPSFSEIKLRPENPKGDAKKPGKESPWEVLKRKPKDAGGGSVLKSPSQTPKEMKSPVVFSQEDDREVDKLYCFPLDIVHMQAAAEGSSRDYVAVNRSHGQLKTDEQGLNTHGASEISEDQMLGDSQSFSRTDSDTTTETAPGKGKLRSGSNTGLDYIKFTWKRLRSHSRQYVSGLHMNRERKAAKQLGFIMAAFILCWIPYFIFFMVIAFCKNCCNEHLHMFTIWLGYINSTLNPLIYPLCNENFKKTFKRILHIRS

Row | SMILES | pKb [1] | pKb [4] | pKb [5] | Intrinsic activity [6] | Intrinsic activity [7] | pKb [8] | Intrinsic activity [15] | Efficacy [17] [%] | Kb [20] [nM] | also measured
1 | CC(CC(=O)/N=C(\N)NCCCc1cccnc1)c1ccccc1 (centres undefined) | < 5 | < 5 | < 5 | -0.11 | -0.01 | 5.27 |  |  |  | pD'2 [2]: 4.22; Kb [3]: > 31600 nM
2 | CN/C(=N\C#N)NCCCNc1ccccn1 |  |  |  |  |  |  |  |  |  | pEC50 [9]: inactive; Intrinsic activity [10]: -0.13; pKb [11]: < 5; pEC50 [12]: inactive; Intrinsic activity [13]: -0.03; pKb [14]: < 5
3 | CN/C(=N\C#N)NCCCCNc1ccccn1 |  |  | < 5 |  |  |  | 0.03 |  |  | pEC50 [9]: inactive; Intrinsic activity [10]: -0.11; pKb [11]: < 5; Intrinsic activity [13]: -0.1; pKb [14]: < 5
4 | CC(CC(=O)/N=C(\N)NCCCc1c[nH]cn1)c1ccccc1 (centres undefined) |  |  |  | 0.87 | 0.24 |  |  | 99 |  | Intrinsic activity [16]: 0.84
5 | CC(CC(=O)/N=C(\N)NCCCc1cn[nH]c1)c1ccccc1 (centres undefined) | < 5 | < 5 | < 5 | 0.44 | 0.04 |  |  | 54 | 3800 | EC50 [18]: 240 nM; EC50 [19]: 468 nM
6 | N/C(=N\C(=O)CC(c1ccccc1)c1ccccc1)NCCCc1ncn[nH]1 |  | < 5 | < 5 | 0.42 | -0.03 |  | 0.06 | 83 | 1620 | EC50 [18]: 407 nM; pEC50 [21]: inactive; EC50 [19]: 204 nM
7 | CC(CC(=O)/N=C(\N)NCCCc1ncn[nH]1)c1ccccc1 (centres undefined) |  | < 5 | < 5 | 0.66 | -0.03 |  |  | 100 | 1480 | Kb [3]: 479 nM; EC50 [18]: 741 nM; pEC50 [21]: inactive; EC50 [22]: 100 nM
8 | Cc1[nH]cnc1CCCCN/C(=N\C#N)NCCSc1ccccc1 |  |  | < 5.3 |  |  |  | -0.03 |  |  | Intrinsic activity [10]: 0.37; EC50 [23]: 245 nM; Ratio EC50 [24]: > 10; Intrinsic activity [25]: -0.06; Intrinsic activity [13]: -0.65; Ratio EC50 [26]: > 10; pKb [14]: 5.5; pKb [27]: 5.36; Ratio EC50 [28]: > 10
9 | N/C(=N\C(=O)CC(c1ccccc1)c1ccccc1)NCCCc1cn[nH]c1 | < 5 | < 5 | 5.06 | 0.08 | -0.02 | 5.42 | 0.06 | 41 | 2570 | EC50 [19]: 363 nM
10 | N/C(=N\C(=O)CC(c1ccccc1)c1ccccc1)NCCCc1ncc[nH]1 | 5.85 | 5.47 | 5.07 | -0.04 | -0.33 | 6.13 | 0.04 |  |  | Intrinsic activity [16]: -0.08
11 | CC(CC(=O)/N=C(\N)NCCCc1ncc[nH]1)c1cccs1 (centres undefined) |  | 5.35 |  | 0.04 | -0.46 | 5.26 |  |  |  | Intrinsic activity [16]: 0.5; EC50 [21]: 776 nM
